Structures can show the parent of a compound that is named as a salt.
Experiments:
[1] = infusion time beyond 60 minutes; cited from earlier work
[2] = cited from earlier work
[3] = controlled room temperature 20° C. to 25° C.; cited from earlier work
[4] = cited from earlier work; remark: listed apart in the source
[5] = test system: Irradiated, Unsupported Rhesus Monkeys; assay: Radiomitigation study in myeloablated, lethally irradiated, unsupported nonhuman primates; assay type: in vivo
Experimental: FIG. 3: Kaplan-Meier Survival Curves of Irradiated, Unsupported Monkeys Treated with HemaMax™. Pooled HemaMax™ dosing group is shown. No antibiotics were used during the study. One animal with a broken tooth was excluded from the study because of an unrelated death to the study. p<0.05 pooled treatment groups.
FIGS. 4A-4B: Leukocyte (A) and Thrombocyte (B) Counts in Irradiated, Unsupported Rhesus Monkeys Treated With HemaMax™. Three analyses were conducted to assess differences in blood cell counts during the study period.
FIG. 4 describes […] Counts in Irradiated, Unsupported Rhesus Monkeys Treated With HemaMax™. Three analyses were conducted to assess differences in blood cell counts during the study period.

[6] = test system: non-human primates (rhesus monkeys); assay: Pharmacodynamic response (IFN-γ) in non-human primates in vitro and in vivo; settings: both in vitro and in vivo
human immune cells = assay: Pharmacodynamic response (IFN-γ) in human immune cells in vitro; assay type: cell-based
Lin-IL-12Rβ2-cells = assay: Megacult colony culture with and without IL-12; assay type: cell-based; settings: megacult medium, 5000 cells/slide
Experimental: FIG. 7: Lin-IL-12Rβ2-cells were plated in megacult medium at 5000 cells/slide with and without IL-12.
By way of example, FIG. 7 describes Lin-IL-12RB2-cells were plated in megacult medium at 5000 cells/slide with and without IL-12.

platelets = assay: Chemotherapy induced thrombocytopenia (CIT) model, gemcitabine/carboplatin (GC) chemotherapy, platelet counts; assay type: in vivo, mice; settings: for % platelet counts from baseline (average and standard deviation): day 8
Experimental: The effect of rMuIL-12 administration in conjunction with gemcitabine/carboplatin chemotherapy (GC) (6.6 mg gemcitabine dose+2 mg carboplatin) was examined. Mice received GC intravenously on day 0.
Pre-dosing: rMuIL-12 was given 24 hours before chemotherapy treatment (n=18)
Post-dosing: rMuIL-12 was administered 48 hours after chemotherapy treatment (n=19) Pre/post dosing: rMuIL-12 was given 24 hours before chemotherapy and 48 hours after chemotherapy (n=13)
Averages of % platelet counts from baseline and standard deviations for each group at day 8 were: […]

Lewis Lung tumor cells = assay: Lewis Lung mouse tumor model with concomitant GC chemotherapy, tumor volume; assay type: in vivo; settings: 20 ng subcutaneously before, after or before/after GC; differences not statistically significant
Experimental: The effect of rMuIL-12 administration on tumor growth in a mouse tumor chemotherapy model was evaluated. The tumor model used Lewis Lung tumor cells that were subcutaneously injected (100,000 cells) in each mouse. At a given time after tumor inoculation, mice were treated with chemotherapy. The gemcitabine/carboplatin chemotherapy regimen as described above was used and administered IP. rMuIL-12 was administered subcutaneously (20 ng) before, after, or before/after chemotherapy as indicated below.
Pre-dosing (n=16): rMuIL-12 was given 24 hours before chemotherapy treatment,
Post-dosing (n=16): rMuIL-12 was administered 48 hours after chemotherapy treatment
Pre/post dosing (n=16): rMuIL-12 was given 24 hours before chemotherapy and 48 hours after chemotherapy. Control (n=16)
Tumor volume was monitored over time to compared tumor growth in the control compared to rMuIL-12 treated mice. […] The differences among groups in tumor growth were not statistically significant.

EL4 lymphoma tumor model = assay: Tumor volume after radiation (625 rad), EL4 lymphoma tumor model; assay type: in vivo, mice; settings: 625 rad day 1 and second dose day 22, pre, post and pre-post radiation dosing groups, endpoint of tumor volume evaluation
Excerpt: (§1) FIGS. 2A-2B: Relative Changes in Tumor Volumes for Vehicle and rMuIL-12 Treatment Groups Following Radiation (625 rad). Changes in tumor volumes over the course of the experiment are shown for the EL4 lymphoma tumor model (A) and the Lewis Lung cancer tumor model (B). Mice in both tumor models were given 625 rad on day 1. Mice in both tumor models were given a second dose of radiation on day 22 following the initial radiation dose.
as §1, with “FIG. 2 A-B describe” for “FIGS. 2A-2B:”, “(a)” for “(A)”, “(b).” for “(B).”

[7] = test system: Lewis Lung cancer tumor model; assay: Tumor volume after radiation (625 rad), Lewis Lung cancer tumor model; assay type: in vivo, mice; settings: 625 rad day 1 and second dose day 22, rMuIL-12 post-treatment, endpoint of tumor growth evaluation
Excerpt: as §1
as §1, with “FIG. 2 A-B describe” for “FIGS. 2A-2B:”, “(a)” for “(A)”, “(b).” for “(B).”

Lewis Lung tumor = Lewis Lung tumor model with two rounds of gemcitabine monotherapy, tumor volume; assay type: in vivo, mouse; settings: gemcitabine 6.6 mg IP twice, one week apart; differences not statistically significant
Experimental: The study evaluate the effect of rMuIL-12 on tumor growth in a mouse chemotherapy model was followed up with a second study to examine the growth in the same Lewis Lung model when gemcitabine was used as monotherapy and administered two times, one week apart. rMuIL-12 was also administered as pre-dosing and post-dosing, as described above, and also with a 24 hour post group and on the same day as chemotherapy administration. rMuIL-12 was administered at either both weeks of chemotherapy or only the first week. There were five groups with n=5 for each group. These groups are described below: Chemotherapy once weekly: Gemcitabine only, administered IP, 6.6 mg rMuIL-12 given weekly, three schedules: 24 hours pre-chemotherapy (Pre); Same day as chemotherapy (SD); 24 hours post chemotherapy (Post1=24 hrs-post; Post2=48 hrs-post).
By way of example, FIG. 10 describes Lewis Lung Tumor Volume of Mice Under Monotherapy With Gemcitabine Receiving rMuIL-12. Day 0 is the time of the first chemotherapy. The second chemotherapy administration took place at day 7. […] The differences in growth among groups were not statistically significant.

[8] = test system: neutrophils, red blood cells and platelets; assay: Blood recovery after myelosuppressive radiation (625 rad), EL4 lymphoma tumor model; assay type: in vivo, mice; settings: days 14-21
Excerpt: (§2) FIGS. 1A-1B: Blood Recovery Profiles for Vehicle and rMuIL-12 Administered Before and After Myelosuppresive Radiation (625 rad). Blood cell recovery profiles are shown for the EL4 lymphoma tumor model (A) and the Lewis lung cancer model (B) for neutrophils, red blood cells and platelets. Pre-radiation blood values reflect an average of all animals in both groups before radiation and tumor inoculation. The normal threshold value for murine blood cell counts is indicated by the dashed line.
(§3) Platelet recovery profiles are shown for the EL4 lymphoma tumor model (a) and the Lewis lung cancer model (b).

femoral bone marrow = assay: Hematopoietic recovery in irradiated mice (TBI 8.0 Gy), femoral bone marrow IHC for IL-12Rβ2; assay type: in vivo; settings: 20 ng/mouse subcutaneously post irradiation, 12 days after irradiation
Experimental: FIGS. 6A-6F: Murine IL-12 Promotes Hematopoietic Recovery in Irradiated Mice. Representative sections of femoral bone marrow from non-irradiated, untreated mice that were stained for IL-12Rβ2 are shown in (A). Animals were subjected to TBI (8.0 Gy) and subsequently received vehicle or rMuIL-12 (20 ng/mouse) subcutaneously at the indicated times post irradiation (B-F). Femoral bone marrow was immunohistochemically stained for IL-12Rβ2 (orange color) 12 days after irradiation. […] Magnification=100×.
By way of example, FIG. 6 describes Murine IL-12 Promotes Hematopoietic Recovery in Irradiated Mice. Representative sections of femoral bone marrow from non-irradiated, untreated mice that were stained for IL-12Rβ2 (orange color) are shown in (a). Animals were subjected to TBI (8.0 Gy) and subsequently received vehicle or rMuIL-12 (20 ng/mouse) subcutaneously at the indicated times post irradiation (b-f). Femoral bone marrow was immunohistochemically stained for IL-12Rβ2 (orange color) 12 days after irradiation.

[9] = test system: neutrophils, red blood cells and platelets; assay: Blood recovery after myelosuppressive radiation (625 rad), Lewis lung cancer model; assay type: in vivo, mice; settings: days 14-21
Excerpt: as §2, §3

[10] = days 12 and 14, 100 ng/kg and 250 ng/kg doses
[11] = rMuIL-12 before and after 625 rad

In the case of `Nc1ccn([C@@H]2O[C@H](CO)[C@@H](O)C2(F)F)c(=O)n1` [Gemzar, 2′-deoy-2′,2′-difluorocytidine monohydrochloride (β-isomer)], the “toxicity on prolongation of infusion time beyond 60 minutes” value [1] is given as “minutes has been shown to increase toxicity”, the acute dermal irritation ([2]; animal studies) is given as “not been observed” and the “rabbits with drug-related systemic toxicities (death, hypoactivity, nasal discharge, shallow breathing) due to dermal absorption” value ([2]; rabbits, dermal) is given as “two of three”. For the same molecule, the “stability of prepared solutions” value [3] was 24 h, the “maximum concentration upon reconstitution (solubility considerations)” value ([4]; 0.9% Sodium Chloride Injection) was 40 mg/mL and the “solubility in ethanol and polar organic solvents” value ([4]; ethanol and polar organic solvents) was “practically insoluble in ethanol and polar organic”. For the same molecule, the solubility in methanol ([4]; methanol) was “slightly soluble” and the solubility in water ([4]; water) was “soluble”.

In the case of “HemaMax: recombinant human IL-12, heterodimeric glycoprotein of p35 and p40 subunits, 503 amino acids, produced in CHO cells”, the “numbers of leukocytes as compared to vehicle” value [5, 10] is reported as “significantly higher numbers”, the “numbers of thrombocytes as compared to vehicle” value [5, 10] is reported as “significantly higher numbers” and the “monkeys that required a platelet transfusion” value ([5]; lethal radiation NHP study, vehicle 80%) is reported as 25%. The “platelet and WBC nadirs” value ([5]; lethally irradiated NHP) was “attenuates”, the survival ([5]; lethally irradiated NHP, no antibiotics, pooled dosing groups) was “increases survival” and the “pharmacodynamic response (interferon-γ [IFN-γ])” value [6] was “potently elicits”. For the same molecule, the “pharmacodynamic response (interferon-γ [IFN-γ])” value (human immune cells) was “potently elicits”.

B1: IL-12: heterodimeric cytokine comprising p40 and p35 subunits; species of the IL-12 used in the megacult culture not stated (protein, UniProt P29459 23-219; P29460 23-328, looked up)
Interleukin-12 subunit alpha: RNLPVATPDPGMFPCLHHSQNLLRAVSNMLQKARQTLEFYPCTSEEIDHEDITKDKTSTVEACLPLELTKNESCLNSRETSFITNGSCLASRKTSFMMALCLSSIYEDLKMYQVEFKTMNAKLLMDPKRQIFLDQNMLAVIDELMQALNFNSETVPQKSSLEEPDFYKTKIKLCILLHAFRIRAVTIDRVMSYLNAS
Interleukin-12 subunit beta: IWELKKDVYVVELDWYPDAPGEMVVLTCDTPEEDGITWTLDQSSEVLGSGKTLTIQVKEFGDAGQYTCHKGGEVLSHSLLLLHKKEDGIWSTDILKDQKEPKNKTFLRCEAKNYSGRFTCWWLTTISTDLTFSVKSSRGSSDPQGVTCGAATLSAERVRGDNKEYEYSVECQEDSACPAAEESLPIEVMVDAVHKLKYENYTSSFFIRDIIKPDPPKNLQLKPLKNSRQVEVSWEYPDTWSTPHSYFSLTFCVQVQGKSKREKKDRVFTDKTSATVICRKNASISVRAQDRYYSSSWSEWASVPCS
In the case of B1, the “colony size in comparison to media alone” value (Lin-IL-12Rβ2-cells) is reported as “larger colonies”.

B2: rMuIL-12: murine recombinant IL-12, the murine counterpart to HemaMax (protein, UniProt P43431 23-215; P43432 23-335, looked up)
Interleukin-12 subunit alpha: RVIPVSGPARCLSQSRNLLKTTDDMVKTAREKLKHYSCTAEDIDHEDITRDQTSTLKTCLPLELHKNESCLATRETSSTTRGSCLPPQKTSLMMTLCLGSIYEDLKMYQTEFQAINAALQNHNHQQIILDKGMLVAIDELMQSLNHNGETLRQKPPVGEADPYRVKMKLCILLHAFSTRVVTINRVMGYLSSA
Interleukin-12 subunit beta: MWELEKDVYVVEVDWTPDAPGETVNLTCDTPEEDDITWTSDQRHGVIGSGKTLTITVKEFLDAGQYTCHKGGETLSHSHLLLHKKENGIWSTEILKNFKNKTFLKCEAPNYSGRFTCSWLVQRNMDLKFNIKSSSSSPDSRAVTCGMASLSAEKVTLDQRDYEKYSVSCQEDVTCPTAEETLPIELALEARQQNKYENYSTSFFIRDIIKPDPPKNLQMKPLKNSQVEVSWEYPDSWSTPHSYFSLKFFVRIQRKKEKMKETEEGCNQKGAFLVEKTSTEVQCKGGNVCVQAQDRYYNSSCSKWACVPCRVRS
With B2 the “animals with a decrease in platelets of more than 33%” value (platelets; all rMuIL-12 treated groups) was 0 out of 50, the “% platelet counts from baseline (average and standard deviation)” value (platelets; Post-dosing: 48 hours after chemotherapy) was 110±37% and the “% platelet counts from baseline (average and standard deviation)” value (platelets; Pre-dosing: 24 hours before chemotherapy) was 79±34%. For the same molecule, the “% platelet counts from baseline (average and standard deviation)” value (platelets; Pre/Post dosing: 24 hours before and 48 hours after chemotherapy) was 111±33%, the “mice with platelet levels that dropped one-third of baseline level or more” value (platelets; rMuIL-12 prior to, after or both prior to and after chemotherapy, 8 days after chemotherapy) was 0% and the “tumor growth (tumor volume)” value (Lewis Lung tumor cells) was “did not increase tumor growth”. The “tumor growth % T/C” value (EL4 lymphoma tumor model) was less than 50%, the “tumor growth % T/C” value [7] was less than 50% and the “tumor growth rate (tumor volume)” value (Lewis Lung tumor) was “did not increase the tumor growth rate”. The “platelet counts as compared to the vehicle control” value ([8]; 625 rad) was “statistically significant improvements”, the “blood cell counts as compared to the vehicle control” value [8, 11] was “statistically significant improvements” and the “hematopoietic recovery in femoral bone marrow” value (femoral bone marrow) was “hematopoietic reconstitution”. The “platelet counts as compared to the vehicle control” value ([9]; 625 rad) was “statistically significant improvements” and the “blood cell counts as compared to the vehicle control” value [9, 11] was “statistically significant improvements”.

From patent publication US20160120949A1, “USES OF IL-12 IN HEMATOPOIETIC IMMUNOTHERAPY (HIT)” (Neumedicines, Inc., priority 2014, published 2016)
